Reference: patent US10730857B2, “Benzocyanine compounds” (Pierce Biotechnology, Inc., priority 2011, dated 2020)

Columns and labels:
[1] = Absorbance/emission spectral properties and fluorescence intensity of the dyes; type: physicochemical; conditions: 10 μg/ml in PBS buffer pH 7.2, FIG. 1
Protocol: Emission/excitation profiles for inventive and commercial compounds was determined by reconstituting the compounds in DMF at 10 mg/ml and then diluting in PBS buffer pH 7.2 to 10 μg/ml.

streptavidin (SA) = streptavidin (SA) (Streptomyces avidinii, UniProt P22629); assay: Labeling efficiency (degree of labeling) of streptavidin
Sequence of streptavidin (SA) (P22629 25-183, species assumed): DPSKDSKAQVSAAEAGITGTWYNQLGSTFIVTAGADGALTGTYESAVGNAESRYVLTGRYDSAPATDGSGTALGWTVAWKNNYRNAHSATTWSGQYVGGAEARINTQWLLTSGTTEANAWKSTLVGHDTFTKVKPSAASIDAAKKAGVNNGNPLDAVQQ
Protocol: Inventive and commercial compounds, each as the NHS ester, were conjugated to goat anti-mouse (GAM) antibodies, goat anti-rabbit (GAR) antibodies, and streptavidin (SA). GAM, GAR, and SA, at a concentration of 10 mg/ml in phosphate buffered saline (PBS), were dialyzed against 50 mM borate buffer, pH 8.5. […]
The labeled compounds, also termed dyes or labels, were subjected to Pierce Dye Removal Resin (PDDR) to remove the unlabeled (free) compound; 100 μl of the packed resin was used per mg of protein purified. The purified antibody-labeled dyes were then diluted 1:50 in PBS and scanned for absorbance from 700 nm to 230 nm to determine the protein concentration, and to determine the mole dye to mole protein ratio. Each conjugate was diluted 1:10 in 50% glycerol and heated in the presence of 10 mM dithiothreitol (DTT) for 5 min at 95° C., then separated by electrophoresis on polyacrylamide gels in the presence of sodium dodecyl sulfate (SDS-PAGE). The gels were scanned using the Typhoon 9400 Imager to verify removal of the unconjugated compound. Labeling efficiency was compared, with results showing degree of labeling below.

lamin B1 in U20S cells = assay: Immunofluorescence, rabbit anti-lamin B1, U20S cells, GAR conjugates; type: cell-based
Protocol: The inventive compounds and commercial dye were evaluated for immunofluorescence in a second cell based assay using the following protocol. Frozen U20S cell plates stored at −20° C. were placed overnight at 4° C. Storage buffer (PBS) was removed and the cells were permeabilized for 15 min (100 μl/well) with 0.1% Triton-X100 in 1×PBS buffer. Plates were blocked for 30 min in 2% BSA in 1×PBS-0.1% Trion-X100. Primary antibodies diluted in 2% BSA in 1×PBS-0.1% Trion-X100 were added to the plates (column 1-11; column 12 included only blocker) and incubated five hours at room temperature. Mouse anti-lamin A was added at 2 μg/ml and rabbit anti-lamin B1 was added at 4 μg/ml. After incubation, the antibody solution was removed from the plates and the plates were washed PBS-0.5% Tween-20 (2×100 μl/well). Next, GAM and GAR secondary antibodies labeled with DyLight 680-NHS, DyLight 680B-NHS, 679 Compound 1-NHS, and Cy5.5 Mono Ester were diluted to 4 μg/ml in PBS and incubated with the cells for one hour at room temperature. […] The plates were scanned on ArrayScan Plate Reader for imaging and quantitation.

lamin A in U20S cells = assay: Immunofluorescence, mouse anti-lamin A, U20S cells (FIG. 16); type: cell-based
Protocol: The inventive compounds and commercial dye were evaluated for immunofluorescence in a second cell based assay using the following protocol. Frozen U20S cell plates stored at −20° C. were placed overnight at 4° C. Storage buffer (PBS) was removed and the cells were permeabilized for 15 min (100 μl/well) with 0.1% Triton-X100 in 1×PBS buffer. Plates were blocked for 30 min in 2% BSA in 1×PBS-0.1% Trion-X100. Primary antibodies diluted in 2% BSA in 1×PBS-0.1% Trion-X100 were added to the plates (column 1-11; column 12 included only blocker) and incubated five hours at room temperature. Mouse anti-lamin A was added at 2 μg/ml and rabbit anti-lamin B1 was added at 4 μg/ml. After incubation, the antibody solution was removed from the plates and the plates were washed PBS-0.5% Tween-20 (2×100 μl/well). Next, GAM and GAR secondary antibodies labeled with DyLight 680-NHS, DyLight 680B-NHS, 679 Compound 1-NHS, and Cy5.5 Mono Ester were diluted to 4 μg/ml in PBS and incubated with the cells for one hour at room temperature. GAM and GAR conjugated to DyLight 680-NHS, DyLight 680B-NHS, 679 Compound 1-NHS, and Company B Compound at 10× molar excess were diluted to 4 μg/ml in PBS and then serially diluted 1:1 in the plate to the following concentrations: 2 μg/ml, 1 μg/ml, 0.5 μg/ml, 0.25 μg/ml, 0.125 μg/ml and/or 0.0625 μg/ml. The plates were washed 3× with 100 μl/well PBS, and Hoechst stain diluted to 0.1 μg/ml in PBS was added to each well (100 μl/well). The plates were scanned on ArrayScan Plate Reader for imaging and quantitation.

lamin A in A549 cells = assay: Immunofluorescence, mouse anti-lamin A, A549 cells (FIG. 15); type: cell-based; conditions: GAM conjugates at 4× to 12× molar excess
Protocol: The inventive compounds were evaluated for immunofluorescence in cell based assays using the following protocol. Frozen A549 cell plates stored at −20° C. were placed for 30 min 50° C. Storage buffer (PBS) was removed and the cells were permeabilized for 15 min (100 μl/well) with 0.1% Triton-X100 in 1×PBS buffer. Plates were blocked for 30 min in 2% BSA in 1×PBS-0.1% Trion-X100. Primary antibodies diluted in 2% BSA in 1×PBS-0.1% Trion-X100 were added to the plates (column 1-11; column 12 included only blocker) and incubated […]. Mouse anti-lamin A was added at 1 μg/ml and rabbit anti-lamin B1 was added at 3 μg/ml. After overnight incubation, the antibody solution was removed from the plates and the plates were washed with PBS-0.5% Tween-20 (2×100 μl/well). GAM and GAR secondary antibodies labeled with DyLight 680-NHS, DyLight 680B-NHS, 679 Compound 1-NHS and Company B Compound-NHS were diluted to 4 μg/ml in PBS, added and incubated for one hour at room temperature. The plates were then washed three times with 100 μl/well PBS, and Hoechst stain diluted to 0.1 μg/ml in PBS was added to each well (100 μl/well). The plates were scanned on ArrayScan Plate Reader for imaging and quantitation.

COCC[N+]1=C(/C=C/C=C/C=C2/N(CCCCCC(=O)O)c3ccc4c(S(=O)(=O)[O-])cc(S(=O)(=O)[O-])cc4c3C2(C)C)C(C)(CCCS(=O)(=O)[O-])c2c1ccc1c(S(=O)(=O)[O-])cc(S(=O)(=O)[O-])cc21.[Na+].[Na+].[Na+].[Na+] (centres unmarked) [679 Compound 1, 6-((E)-2-((2E,4E)-5-(3-(2-methoxyethyl)-1-methyl-6,8-disulfonato-1-(3-sulfonatopropyl)-1H-benzo[e]indol-3-ium-2-yl)penta-2,4-dien-1-ylidene)-1,1-dimethyl-6,8-disulfonato-1H-benzo[e]indol-3(2H)-yl)hexanoate]
Max Abs ([1]; Cary UV spectrophotometer): 679 nm | Max E ([1]; emission, Tecan Safire): 704 nm | degree of labeling (streptavidin (SA); SA-6X molar excess): 4.0 | degree of labeling (streptavidin (SA); SA-8X molar excess): 5.0 | Overall fluorescence signal intensity (in words) (lamin B1 in U20S cells; GAR conjugates): about two times higher compared to DyLight 680 | S/B (in words) (lamin B1 in U20S cells; GAR labeled at 2×, 3× or 4× molar excess): comparable to each other and to DyLight 680 conjugates | Mean Total Intensity 2X (lamin A in U20S cells; GAM conjugated at 2X molar excess, FIG. 16): 232482 | Mean Total Intensity 3X (lamin A in U20S cells; GAM conjugated at 3X molar excess, FIG. 16): 263580 | Mean Total Intensity 4X (lamin A in U20S cells; GAM conjugated at 4X molar excess, FIG. 16): 330865 | S/B (in words) (lamin A in U20S cells; GAM conjugates at the low molar excesses): comparable to each other and to DyLight 680 | performance in immunofluorescence (in words) (lamin A in A549 cells): very similar performance to corresponding DyLight 680B conjugates
